Experimental data: patent US20230203059A1, “MACROCYCLIC JAK INHIBITOR AND USES THEREOF” (Biopolar Hongye (Guangdong) Pharmaceutical Co. Ltd., priority 2020, published 2023)
pIC50: −log10 of the molar value.

Experiments:
Format in all cases: biochemical
JAK3 = target: T1, JAK3 (Homo sapiens, UniProt P52333); experiment: JAK kinase activity, homogeneous time-resolved fluorescence (JAK3 reaction system); conditions: ATP 2 μM, JAK3 protein 0.04 ng/μL; read-out: JAK 3 activity
T1 sequence (P52333 1-1124): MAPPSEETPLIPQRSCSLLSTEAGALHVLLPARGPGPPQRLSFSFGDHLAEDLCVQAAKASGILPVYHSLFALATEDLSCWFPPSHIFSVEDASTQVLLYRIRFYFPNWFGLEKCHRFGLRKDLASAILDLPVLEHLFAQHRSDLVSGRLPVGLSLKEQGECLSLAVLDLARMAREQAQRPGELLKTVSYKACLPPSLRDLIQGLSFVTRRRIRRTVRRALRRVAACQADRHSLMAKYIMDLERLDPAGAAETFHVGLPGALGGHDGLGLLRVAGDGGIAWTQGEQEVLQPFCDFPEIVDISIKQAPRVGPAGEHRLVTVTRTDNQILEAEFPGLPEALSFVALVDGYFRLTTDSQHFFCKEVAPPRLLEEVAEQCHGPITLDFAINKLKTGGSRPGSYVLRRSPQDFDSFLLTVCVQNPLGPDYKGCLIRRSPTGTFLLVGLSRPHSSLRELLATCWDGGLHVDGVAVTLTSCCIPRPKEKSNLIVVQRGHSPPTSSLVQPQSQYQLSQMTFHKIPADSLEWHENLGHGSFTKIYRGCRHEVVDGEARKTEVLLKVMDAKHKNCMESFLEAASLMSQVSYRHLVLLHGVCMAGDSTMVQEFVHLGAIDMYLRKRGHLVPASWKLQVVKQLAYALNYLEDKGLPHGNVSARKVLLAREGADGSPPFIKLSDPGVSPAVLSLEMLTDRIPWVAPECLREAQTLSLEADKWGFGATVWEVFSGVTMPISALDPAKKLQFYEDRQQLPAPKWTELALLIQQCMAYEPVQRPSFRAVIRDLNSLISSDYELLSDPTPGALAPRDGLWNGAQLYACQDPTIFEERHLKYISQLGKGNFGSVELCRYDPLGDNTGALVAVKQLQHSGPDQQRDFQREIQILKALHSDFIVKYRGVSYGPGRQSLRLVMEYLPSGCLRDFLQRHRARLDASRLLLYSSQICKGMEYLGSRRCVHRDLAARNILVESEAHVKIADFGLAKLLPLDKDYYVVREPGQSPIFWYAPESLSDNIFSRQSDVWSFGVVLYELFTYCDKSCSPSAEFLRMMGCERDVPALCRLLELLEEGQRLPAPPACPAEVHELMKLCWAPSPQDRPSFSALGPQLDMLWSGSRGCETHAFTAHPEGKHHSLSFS

JAK2 = JAK2 (Homo sapiens, UniProt O60674); experiment: JAK kinase activity, homogeneous time-resolved fluorescence (JAK2 reaction system); conditions: ATP 2 μM, JAK2 protein 0.01 ng/μL
Outline: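 IC50 derived by Hill-equation fit of the 665/615 nm time-resolved fluorescence ratio after EDTA-containing detection mix with anti-phosphosubstrate antibody. Preceding 1 h reaction contained 2 μM ATP, 0.01 ng/μL JAK2, substrate, 50 mM Hepes pH 7.0, 5 mM MgCl2, 1 mM DTT.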

TYK2 = TYK2 (Homo sapiens, UniProt P29597); experiment: JAK kinase activity, homogeneous time-resolved fluorescence (TYK2 reaction system); conditions: ATP 2 μM, TYK2 protein 0.2 ng/μL; read-out: TYK 2 activity
Outline: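 Activity read as the 665 nm/615 nm ratio after adding EDTA-containing detection mix with anti-phospho-substrate antibody and XL-615. Beforehand, 0.2 ng/μL TYK2, 2 μM ATP, substrate and compound reacted 1 h in pH 7.0 Hepes buffer with MgCl2 and DTT. IC50 fitted with Hill-slope equation.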

JAK1 = JAK1 (Homo sapiens, UniProt P23458); experiment: JAK kinase activity, homogeneous time-resolved fluorescence (JAK1 reaction system); conditions: ATP 2 μM, JAK1 protein 0.2 ng/μL; read-out: JAK 1 activity
Outline: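 Kinase activity read as the 665 nm/615 nm time-resolved fluorescence ratio (320 nm excitation) after EDTA-containing antibody and XL-615 addition. Reaction ran 1 h at pH 7.0 (Hepes, MgCl2, DTT) with 0.2 ng/μL JAK1 and ATP at 2 μM. IC50 derived by Hill-slope fit.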

Sequence of JAK2 (O60674 whole entry): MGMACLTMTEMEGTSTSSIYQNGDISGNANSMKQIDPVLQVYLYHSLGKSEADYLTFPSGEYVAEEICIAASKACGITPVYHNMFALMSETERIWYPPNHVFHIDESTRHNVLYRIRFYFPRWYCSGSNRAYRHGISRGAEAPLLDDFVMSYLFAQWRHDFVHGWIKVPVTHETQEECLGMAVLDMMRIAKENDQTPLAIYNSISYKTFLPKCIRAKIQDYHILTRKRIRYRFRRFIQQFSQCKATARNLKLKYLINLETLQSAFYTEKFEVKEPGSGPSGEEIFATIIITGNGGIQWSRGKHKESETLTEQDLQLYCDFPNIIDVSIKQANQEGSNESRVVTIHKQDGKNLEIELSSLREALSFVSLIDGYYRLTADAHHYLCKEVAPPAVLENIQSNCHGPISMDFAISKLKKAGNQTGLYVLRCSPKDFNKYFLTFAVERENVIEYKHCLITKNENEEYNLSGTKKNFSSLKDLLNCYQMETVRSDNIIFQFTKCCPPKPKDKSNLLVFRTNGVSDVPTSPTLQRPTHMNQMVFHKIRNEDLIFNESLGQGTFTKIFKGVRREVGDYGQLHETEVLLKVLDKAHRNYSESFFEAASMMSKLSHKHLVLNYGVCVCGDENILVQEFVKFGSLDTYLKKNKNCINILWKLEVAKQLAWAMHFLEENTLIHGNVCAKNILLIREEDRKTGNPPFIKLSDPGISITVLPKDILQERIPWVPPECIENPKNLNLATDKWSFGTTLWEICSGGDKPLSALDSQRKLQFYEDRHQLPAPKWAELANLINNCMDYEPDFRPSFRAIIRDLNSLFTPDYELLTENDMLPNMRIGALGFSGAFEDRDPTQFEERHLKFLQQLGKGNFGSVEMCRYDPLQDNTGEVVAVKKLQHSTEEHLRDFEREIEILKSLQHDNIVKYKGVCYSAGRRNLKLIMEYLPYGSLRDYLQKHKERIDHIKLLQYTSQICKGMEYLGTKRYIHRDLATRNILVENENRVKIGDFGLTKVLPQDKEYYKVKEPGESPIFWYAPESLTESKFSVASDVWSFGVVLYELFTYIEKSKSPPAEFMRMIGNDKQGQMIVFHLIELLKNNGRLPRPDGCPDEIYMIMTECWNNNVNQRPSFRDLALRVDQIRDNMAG
Sequence of TYK2 (P29597 whole entry): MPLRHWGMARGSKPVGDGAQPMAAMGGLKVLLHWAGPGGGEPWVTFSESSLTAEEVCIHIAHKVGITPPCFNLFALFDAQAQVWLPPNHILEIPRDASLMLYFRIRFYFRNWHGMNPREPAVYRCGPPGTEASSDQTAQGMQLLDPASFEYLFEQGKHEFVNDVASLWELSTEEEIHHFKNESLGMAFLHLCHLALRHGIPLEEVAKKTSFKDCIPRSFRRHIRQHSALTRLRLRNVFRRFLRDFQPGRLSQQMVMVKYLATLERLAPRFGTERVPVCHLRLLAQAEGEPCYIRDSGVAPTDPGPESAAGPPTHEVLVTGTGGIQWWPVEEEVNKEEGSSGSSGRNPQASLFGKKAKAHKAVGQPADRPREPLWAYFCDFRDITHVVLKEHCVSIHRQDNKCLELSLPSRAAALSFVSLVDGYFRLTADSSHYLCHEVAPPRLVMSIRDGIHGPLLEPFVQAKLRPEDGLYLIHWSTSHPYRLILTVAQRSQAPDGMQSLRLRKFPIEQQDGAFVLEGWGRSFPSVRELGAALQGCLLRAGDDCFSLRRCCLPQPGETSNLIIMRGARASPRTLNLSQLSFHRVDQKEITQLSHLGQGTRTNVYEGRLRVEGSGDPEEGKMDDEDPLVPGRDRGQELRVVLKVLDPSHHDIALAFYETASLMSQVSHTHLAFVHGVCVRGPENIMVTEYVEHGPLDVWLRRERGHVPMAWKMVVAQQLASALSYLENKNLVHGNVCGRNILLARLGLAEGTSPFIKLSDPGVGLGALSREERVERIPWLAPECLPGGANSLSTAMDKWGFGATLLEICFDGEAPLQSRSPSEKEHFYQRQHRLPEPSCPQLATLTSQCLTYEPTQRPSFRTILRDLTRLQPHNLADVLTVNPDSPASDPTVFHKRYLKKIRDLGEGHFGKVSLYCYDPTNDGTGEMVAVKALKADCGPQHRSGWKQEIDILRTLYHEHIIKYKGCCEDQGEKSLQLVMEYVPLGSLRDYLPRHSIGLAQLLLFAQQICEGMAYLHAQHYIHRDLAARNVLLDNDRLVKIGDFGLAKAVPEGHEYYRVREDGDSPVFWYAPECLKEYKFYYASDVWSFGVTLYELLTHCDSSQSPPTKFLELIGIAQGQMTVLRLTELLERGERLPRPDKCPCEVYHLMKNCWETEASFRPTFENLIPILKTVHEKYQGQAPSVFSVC
Sequence of JAK1 (P23458 whole entry): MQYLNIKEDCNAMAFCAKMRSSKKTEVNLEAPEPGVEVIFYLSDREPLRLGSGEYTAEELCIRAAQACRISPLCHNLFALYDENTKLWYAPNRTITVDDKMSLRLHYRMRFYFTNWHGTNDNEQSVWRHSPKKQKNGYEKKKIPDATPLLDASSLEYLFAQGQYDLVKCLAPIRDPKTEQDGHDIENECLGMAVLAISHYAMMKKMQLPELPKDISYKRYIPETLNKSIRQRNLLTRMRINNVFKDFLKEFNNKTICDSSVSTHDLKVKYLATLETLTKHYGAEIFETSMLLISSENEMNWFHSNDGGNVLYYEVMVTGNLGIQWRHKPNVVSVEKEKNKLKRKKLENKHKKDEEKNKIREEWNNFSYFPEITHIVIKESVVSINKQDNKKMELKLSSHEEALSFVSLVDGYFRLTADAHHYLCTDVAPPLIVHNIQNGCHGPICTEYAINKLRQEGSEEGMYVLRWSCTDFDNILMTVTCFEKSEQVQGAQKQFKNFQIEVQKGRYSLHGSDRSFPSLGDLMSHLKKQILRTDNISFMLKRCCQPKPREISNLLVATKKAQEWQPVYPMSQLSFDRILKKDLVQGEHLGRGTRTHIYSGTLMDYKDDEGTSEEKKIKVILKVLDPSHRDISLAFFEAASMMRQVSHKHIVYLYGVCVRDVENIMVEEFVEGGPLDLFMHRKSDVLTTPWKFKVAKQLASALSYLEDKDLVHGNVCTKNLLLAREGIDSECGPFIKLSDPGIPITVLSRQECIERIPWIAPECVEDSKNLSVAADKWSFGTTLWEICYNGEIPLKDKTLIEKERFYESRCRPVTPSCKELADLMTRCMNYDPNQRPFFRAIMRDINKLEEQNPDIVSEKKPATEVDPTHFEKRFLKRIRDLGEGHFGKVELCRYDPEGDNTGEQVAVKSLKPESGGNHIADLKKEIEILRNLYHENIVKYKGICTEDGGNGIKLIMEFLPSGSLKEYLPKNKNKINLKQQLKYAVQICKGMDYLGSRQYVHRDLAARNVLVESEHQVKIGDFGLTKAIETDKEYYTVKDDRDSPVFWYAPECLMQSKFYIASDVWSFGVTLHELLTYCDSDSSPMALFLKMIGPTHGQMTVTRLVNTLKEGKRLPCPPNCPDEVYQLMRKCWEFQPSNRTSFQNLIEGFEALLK

Structure (SMILES) | pIC50 (JAK3) | pIC50 (JAK2) | pIC50 (TYK2) | pIC50 (JAK1)
CC1CCNC(=O)c2ccc(c(N)c2)-c2ccnc(n2)Nc2ccc(OCC3COC3)c(c2)COC1 (stereo not shown) [Example 175] | 7.00 to 7.96 | 6.00 to 7.00 | 5.00 to 6.00 | 5.00 to 6.00
CC1CCOCc2cc(ccc2OCC2CCOC2)Nc2nccc(n2)-c2ccc(cc2N)C(=O)NC1 (stereo not shown) [Example 167, 1-amino-9-methyl-4^4-((tetahydro-furan-3-yl)methoxy)-6-oxa-3,11-diaza-2(4,2)-pyrimidina-1(1,4),4(1,3)-dibenzenacyclododecaphan-12-one] | > 8.00 | 6.00 to 7.00 | 6.00 to 7.00 | 6.00 to 7.00
O=C1NCCCCOCc2cccc(c2)Nc2ncc(Cl)c(n2)-c2ccc1cc2Cl [Example 18, 1^2,2^5-dichloro-6-oxa-3,11-diaza-2(4,2)-pyrimidina-1(1,4),4(1,3)-dibenz-enacyclododecaphan-12-one] | 6.00 to 7.00 | 6.00 to 7.00 | < 5.00 | 5.00 to 6.00
O=C1NCCCCOCc2cc(ccc2N2CCOCC2)Nc2nccc(n2)-c2ccc1cc2F [Example 4, 1^2-fluoro-4^4-morpholin-6-oxa-3,11-diaza-2(4,2)-pyrimidina-1(1,4),4(1,3)-dibenzenacyclododecaphan-12-one] | 7.00 to 7.96 | 6.00 to 7.00 | 6.00 to 7.00 | 5.00 to 6.00
CC1CCOCc2cc(ccc2OC2CC2)Nc2nccc(n2)-c2ccc(cc2[N+](=O)[O-])C(=O)NC1 (stereo not shown) [Example 158, 4^4-cyclopropoxy-9-methyl-1^2-nitro-6-oxa-3,11-diaza-2(4,2)-pyrimi-dina-1(1,4),4(1,3)-dibenzenacyclo-dodecaphan-12-one] | 6.00 to 7.00 | < 5.00 | < 5.00 | 5.00 to 6.00
Nc1cc2ccc1-c1ccnc(n1)Nc1ccc(OCC3COC3)c(c1)COCCCCNC2=O [Example 164, 1^2-amino-4^4-(oxetan-3-ylmethoxy)-6-oxa-3-diaza-2(4,2)-pyrimidina-1(1,4),4(1,3)-dibenzenacyclo-dodecaphan-12-one] | 7.00 to 7.96 | 6.00 to 7.00 | 5.00 to 6.00 | 5.00 to 6.00
Cc1cnc2nc1-c1ccc(cc1)C(=O)NCCCCOCc1cc(ccc1N1CCOCC1)N2 [Example 5, 2^5-methyl-4^4-morpholin-6-oxa-3,11-diaza-2(4,2)-pyrimidina-1(1,4),4(1,3)-dibenzenacyclododecaphan-12-one] | 7.00 to 7.96 | 7.00 to 7.96 | 7.00 to 7.96 | 7.00 to 7.96
Nc1cc2ccc1-c1ccnc(n1)Nc1ccc(OC3CCCCC3)c(c1)COCCCCNC2=O [Example 47, 1^2-amino-4^4-cyclohexyloxy-6-oxa-3,11-diaza-2(4,2)-pyrimidina-1(1,4),4(1,3)-dibenzenacyclododecaphan-12-one] | 7.00 to 7.96 | 5.00 to 6.00 | 5.00 to 6.00 | 5.00 to 6.00
O=C1NCCCCOCc2cc(cc(N3CCOCC3)c2)Nc2ncc(Cl)c(n2)-c2ccc1cc2 [Example 16, 2^5-chloro-4^5-morpholin-6-oxa-3,11-diaza-2(4,2)-pyrimidina-1(1,4),4(1,3)-dibenzenacyclododecaphan-12-one] | 7.00 to 7.96 | 7.00 to 7.96 | 5.00 to 6.00 | 7.00 to 7.96
CNc1cc2ccc1-c1ccnc(n1)Nc1ccc(OC(C)C)c(c1)COCCCCNC2=O [Example 86, 4^4-isopropoxy-1^2-methyalmino-6-o-xa-3,11-diaza-2(4,2)-pyrimidina-1(1,4),4(1,3)-dibenzenacyclododecaphan-12-one] | 6.00 to 7.00 | 5.00 to 6.00 | < 5.00 | 5.00 to 6.00
O=C1NCCCCOCc2cc(ccc2N2CCOCC2)Nc2nccc(n2)-c2ccc1cc2I [Example 41, 1^2-iodine-4^4-morpholin-6-oxa-3,11-diaza-2(4,2)-pyrimidina-1(1,4),4(1,3)-dibenzenacyclododephan-12-one] | 6.00 to 7.00 | 6.00 to 7.00 | 5.00 to 6.00 | 5.00 to 6.00
O=C1Nc2ccc(cc2)OCc2cc(ccc2OC2CCCOC2)Nc2nccc(n2)-c2ccc1cc2[N+](=O)[O-] (stereo not shown) [Example 203, 1^2-nitro-4^4-((tetrahydro-2H-pyran-3-yl)oxy)-6-oxa-3,8-diaza-2(4,2)-pyri-midina-1,7(1,4),4(1,3)-tribenzenacyclo-nonaphane-9-one] | 6.00 to 7.00 | 5.00 to 6.00 | < 5.00 | 5.00 to 6.00
CC1CCNC(=O)c2ccc(c([N+](=O)[O-])c2)-c2ccnc(n2)Nc2ccc(OCC3CCCOC3)c(c2)COC1 (stereo not shown) [Example 139, 8-methyl-1^2-nitro-4^4-((tetrahydro-2H-pyran-3-yl)methoxy)-6-oxa-3,11-diaza-2(4,2)-pyrimidina-1(1,4),4(1,3)-dibenzenacyclododecaphan-12-one] | 6.00 to 7.00 | 5.00 to 6.00 | < 5.00 | 5.00 to 6.00
CC(C)COc1ccc2cc1COc1ccc(cc1)NC(=O)c1ccc(c([N+](=O)[O-])c1)-c1ccnc(n1)N2 [Example 201, 4^4-isobutoxy-1^2-nitro-6-oxa-3,8-dia-za-2(4,2)-pyrimidina-1,7(1,4),4(1,3)-tribenzenacyclononaphane-9-one] | 5.00 to 6.00 | < 5.00 | < 5.00 | < 5.00
CN(C)C(=O)C(C)(C)Oc1ccc2cc1COCCCCNC(=O)c1ccc(c(N)c1)-c1ccnc(n1)N2 [Example 179, 2-((1^2-amino-12-oxo-6-oxa-3,11-di-aza-2(4,2)-pyrimidina-1(1,4),4(1,3)-dibenzenacyclododecaphan-4^4-yl)oxy)-N,N-trimethylpropoiona-mide] | 6.00 to 7.00 | 5.00 to 6.00 | < 5.00 | 5.00 to 6.00
CC1CCNC(=O)c2ccc(c(N)c2)-c2ccnc(n2)Nc2ccc(OC3CC3)c(c2)COC1 (stereo not shown) [Example 95, 1^2-amino-4^4-cyclopropoxy-8-methyl-6-oxa-3, 11-diaza-2 (4,2)-pyrimidina-1(1,4),4(1,3)-dibenzenacyclododecaphan-12-one] | > 8.00 | 7.00 to 7.96 | 5.00 to 6.00 | 5.00 to 6.00
CC1CCNC(=O)c2ccc(c([N+](=O)[O-])c2)-c2ccnc(n2)Nc2ccc(OC3CCCOC3)c(c2)COC1 (stereo not shown) [Example 137, 8-methyl-1^2-nitro-4^4-((tetrahydro-2H-pyran-3-yl)oxy)-6-oxa-3,11-di-aza-2(4,2)-pyrimidina-1(1,4),4(1,3)-dibenzenacyclododecaphan-12-one] | 6.00 to 7.00 | 5.00 to 6.00 | < 5.00 | 5.00 to 6.00
COc1cnc2nc1-c1ccc(cc1)C(=O)NCCCCOCc1cc(ccc1N1CCOCC1)N2 [Example 26, 2^5-methoxy-4^4-morpholin-6-oxa-3,11-diaza-2(4,2)-pyrimidina-1(1,4),4(1,3)-dibenzenacyclododecaphan-12-one] | 7.00 to 7.96 | 7.00 to 7.96 | 6.00 to 7.00 | 6.00 to 7.00
CC1(C)CCOCc2cc(ccc2OC2CCCOC2)Nc2nccc(n2)-c2ccc(cc2N)C(=O)NC1 (stereo not shown) [Example 170, 1^2-amino-9,9-dimethyl-4^4-((tetra-hydroxy-2H-pyran-3-yl)oxy)-6-oxa-3,11-diaza-2(4,2)-pyrimidina-1(1,4),4(1,3)-dibenzenacyclododecaphan-12-one] | 6.00 to 7.00 | 5.00 to 6.00 | 5.00 to 6.00 | 5.00 to 6.00
